For one assay, the target named is T1, PELP1-G9a complex (Homo sapiens, UniProt Q8IZL8).
T1 construct: purified bacterial, full-length PELP1; host or cells: bacteria (PELP1)
Description: In vitro peptide competition assay, G9a-GST on glutathione beads with purified PELP1. It is filed as binding. Particulars: peptides 2, 5, 10 μM, 2 hours, FIGS. 2C, 7B, 9. As to the method: FIGS. 2A-D. (FIG. 2A) Immunoprecipitation was performed on nuclear lysates obtained from ZRPELP1 cells grown in 5% DCC for 72 hours and treated with estradiol 10^−7 M for 12 hours. PELP1 was immunoprecipitated and western blotting was performed for PELP1 and G9a expression with IgG as the control. (FIG. 2B) Various fragments of PELP1 bound to glutathione beads were incubated with recombinant G9a for 2 hours. Beads were washed, run on an SDS-PAGE gel and immunoblotted for G9a expression. GST tag alone is shown as control. (FIG. 2C) Recombinant G9a-GST was bound to glutathione beads and incubated with purified PELP1 and peptides for 2 hours. Beads were washed and run on SDS-PAGE gel. (FIG. 2D) ZR75 cells were transfected with ERE-luciferase, PELP1 and/or G9a plasmids and treated with peptide for 24 hours and estradiol 10^−7 M for 12 hours. Relative luciferase activity is shown.
FIGS. 7A-E. (FIG. 7A) Bacterial purified PELP1 was incubated with biotin-tagged peptides bound to avidin beads for one hour. Beads were washed, run on SDS-PAGE gel and probed for PELP1 expression. Input of bacterial PELP1 is shown as control. (FIG. 7B) Recombinant G9a-GST was bound to glutathione beads and incubated with purified PELP1 and peptides for 2 hours. Beads were washed and run on SDS-PAGE gel. (+2 μM, ++5 μM, +++10 μM). (FIG. 7C) ZRGST and ZRPELP1GST cells were transfected in triplicate with TopFlash β-catenin reporter and treated with TAT or PIP1 (10 μM) for 24 hours. Relative luciferase activity is shown. (FIG. 7D) MCF7vec and MCF7PELP1 cells were treated with TAT or PIP1 (10 μM) and toxicity was measured by CytoTox-Flour Cytotoxicity Assay. (FIG. 7E) ZR75 and ZR75PELP1 cells were treated with TAT, PIP1 or PIP2 for 24 hours and immunoblotted for PELP1 and ERα expression with actin as the loading control.
FIG. 9. […]
Peptides were linked to EZ-Link NHS-Biotin (Thermo Scientific) per manutfacturer's protocol. […] Beads were washed 3× with IP buffer (20 mM HEPES pH 7.9, 20% glycerol, 0.1% triton-x, 100 mM KCl), eluted with SDS-dye, and PELP1 expression was determined by western blotting. […]

A further assay concerns ZRPELP1 cells. Description: Initial screen, proliferation assay of PELP1-overexpressing breast cancer cells. Particulars: peptide every 3 days, absorbance at 7 days, FIG. 1B. It is filed as cell-based, Human. As to the method:
FIGS. 1A-D. (FIG. 1A) Diagram for yeast two hybrid screen to identify PELP1 binding peptides. Four regions of PELP1 were tagged with the binding domain and a library of 10^6 random peptides (Clontech) were bound to an activation domain. The number of positive colonies per region of PELP1 are shown in the graph. (FIG. 1B) A proliferation assay was performed with […]1 cells plated in a 96 well plate, treated with peptide every 3 days and absorbance was measured at 7 days. (FIG. 1C) ZR75 were plated in a 6-well plate on coverslips in 8% RPMI and treated with 10 uM FITC labeled peptide for 30, 60, or 120 minutes. They were then fixed with pararformaldehyde, stained for PELP1 (red) and DAPI (blue), and imaged by confocal microscopy to monitor intracellular delivery. (FIG. 1D) ZR75 cells were starved of estrogen for 72 hours and treated with estradiol 10^-7 M for 12 hours. Nuclear lysate was incubated with biotin-tagged peptides bound to avidin beads for one hour. Beads were washed, run on SDS-PAGE gel and probed for PELP1 expression. Input of nuclear lysate is shown as control. Cell proliferation rates were measured by using MTT Cell Viability Assay in 96-well plates. Model cells were seeded in 96-well plates (1×10^3 cells/well) in DMEM or RPMI medium containing 10% serum. After an overnight incubation, cells were treated with varying concentrations of the peptides for 3-7 days and growth inhibition was determined by using traditional MTT assay (Sigma) following manufacturer's instructions.

In assay [1] the test system is TNBC (MDA-MB-231 and MDA-MB-468) and ER-positive (ZR-75 and MCF-7) breast cancer cell lines. Description: MTT proliferation assay of PIP3, TNBC and ER-positive breast cancer cell lines. It is filed as cell-based. To be noted: 10 μM and dose response, FIGS. 13A-C. As to the method:
FIGS. 13A-C. […] (FIG. 13A) Breast cancer cells were treated with vehicle or 10 μM PIP3 and proliferation was measured by using the MTT assay. (FIGS. 13B-C) Dose response curves for PIP3. Cell proliferation rates were measured by using MTT Cell Viability Assay in 96-well plates. Model cells were seeded in 96-well plates (1×10^3 cells/well) in DMEM or RPMI medium containing 10% serum. After an overnight incubation, cells were treated with varying concentrations of the peptides for 3-7 days and growth inhibition was determined by using traditional MTT assay (Sigma) following manufacturer's instructions.
Background: Formazan colour is commonly taken as a measure of viable cells.

Assay [2] concerns MDA-MB-231 and MDA-MB-468. Description: MTT proliferation assay, triple negative breast cancer cell lines. In kind it is cell-based. To be noted: preliminary studies. How it is done: FIGS. 8A-C. (FIG. 8A) ZR75PELP1KD cells were treated in triplicate with TAT or PIP1 (10, 20, or 50 μM) every 3 days and proliferation was measured by MTT assay on day 7. (FIG. 8B) MCF7PELP1KD cells were treated in triplicate with TAT or PIP1 (10, 20, or 50 μM) every 3 days and proliferation was measured by MTT assay on day 7. (FIG. 8C) MDAMB231 and MDAMB468 cells were treated in triplicate with TAT or PIP1 (10 μM) every 3 days and proliferation was measured by MTT assay on day 7. Cell proliferation rates were measured by using MTT Cell Viability Assay in 96-well plates. Model cells were seeded in 96-well plates (1×10^3 cells/well) in DMEM or RPMI medium containing 10% serum. After an overnight incubation, cells were treated with varying concentrations of the peptides for 3-7 days and growth inhibition was determined by using traditional MTT assay (Sigma) following manufacturer's instructions.

Assay [3] relates to T98G, LN229 and U251 glioma cells and patient-derived primary GBM cells. Description: MTT proliferation assay, glioma cell lines and primary GBM cells. In kind it is cell-based. Particulars: FIGS. 15A-D. As to the method:
FIGS. 15A-D. PIPs inhibit proliferation of glioma cells. (FIGS. 15A-B) T98G, LN229 and U251 glioma cells were treated with vehicle or varying concentration of PIP1 or PIP3, and proliferation was measured by using the MTT assay. (FIGS. 15C-D) Patient-derived primary GBM cells were treated with PIP1 or PIP3 and proliferation was measured using the MTT assay. Cell proliferation rates were measured by using MTT Cell Viability Assay in 96-well plates. Model cells were seeded in 96-well plates (1×10^3 cells/well) in DMEM or RPMI medium containing 10% serum. After an overnight incubation, cells were treated with varying concentrations of the peptides for 3-7 days and growth inhibition was determined by using traditional MTT assay (Sigma) following manufacturer's instructions.

Assay [4] relates to ERE-luciferase in ZRPELP1 cells. Description: ERE-luciferase reporter gene assay in PELP1 overexpressing cells. It is filed as cell-based, Human. To be noted: peptide 24 hours, estradiol 12 hours, compared to control TAT, FIGS. 4B, 10. How it is done:
(§1) FIGS. 4A-E. (FIG. 4A) ZR75vec, ZR75PELP1, MCF7vec and MCF7PELP1 cells were treated in triplicate with TAT, PIP1 or PIP1 deletions (Del1, Del2, Del3) at 10 uM every 3 days and proliferation was measured by MTT assay on day 7. (FIG. 4B) ZRPELP1 cells were transfected with ERE-luciferase and treated with TAT, PIP1, or PIP2 for 24 hours and with estradiol for 12 hours. Relative luciferase activity was measured in triplicate. (FIG. 4C) ZR75 cells were grown in 5% DCC media for 72 hours, treated with TAT or PIP1 every 3 days, and treated with estradiol 10^−7 M for 12 hours. Proliferation was measured in triplicate on day 7 by MTT assay at 595 nm. (FIG. 4D) MCF7-Letrozole resistant cells were grown in 5% DCC media for 72 hours, treated with TAT, PIP1 or PIP2 every 3 days, and letrozole or estradiol 10^−7 M for 12 hours. Proliferation was measured in triplicate on day 7 by MTT assay at 595 nm. (FIG. 4E) MCF7-Tamoxiefn resistant cells were grown in 5% DCC media for 72 hours, treated with TAT, PIP1 or PIP2 every 3 days, and tamoxifen or estradiol 10^−7 M for 12 hours. Proliferation was measured in triplicate on day 7 by MTT assay at 595 nm.
FIG. 10. ERE-luciferase assay. […]
Model cells were seeded in 6-well plates. […] Luciferase activity was measured by using the luciferase assay system (Promega, Madison, Wis.).

For assay [5], the system named is MCF7-TamR and MCF7-LTLT cells. Description: Therapy resistance assays, MTT. In kind it is cell-based, Human. To be noted: MCF7-TamR and MCF7-LTLT, 10 μM, FIGS. 4D-E, 11. As to the method:
as §1
FIG. 11. Cell proliferation assay: letrozole-resistant MCF-7-LTLT cells and Tamoxifen resistant MCF7-Tam cells were treated with TAT, PIP1, or PIP2 (10 μM)+/− letrozole or Tamoxifen.
Tamoxifen (Tam) therapy resistant MCF7-TamR and letrozole resistant MCF7-LTLT cells were cultured in tamoxifen or letrozole (10^-7M) containing media in the presence or absence of peptides and proliferation was measured by MTT assay (Sigma) following manufacturer's instructions.

“Also recorded” adds a separate entry of the source.

T1 sequence (Q8IZL8 2-1130, one chain of several): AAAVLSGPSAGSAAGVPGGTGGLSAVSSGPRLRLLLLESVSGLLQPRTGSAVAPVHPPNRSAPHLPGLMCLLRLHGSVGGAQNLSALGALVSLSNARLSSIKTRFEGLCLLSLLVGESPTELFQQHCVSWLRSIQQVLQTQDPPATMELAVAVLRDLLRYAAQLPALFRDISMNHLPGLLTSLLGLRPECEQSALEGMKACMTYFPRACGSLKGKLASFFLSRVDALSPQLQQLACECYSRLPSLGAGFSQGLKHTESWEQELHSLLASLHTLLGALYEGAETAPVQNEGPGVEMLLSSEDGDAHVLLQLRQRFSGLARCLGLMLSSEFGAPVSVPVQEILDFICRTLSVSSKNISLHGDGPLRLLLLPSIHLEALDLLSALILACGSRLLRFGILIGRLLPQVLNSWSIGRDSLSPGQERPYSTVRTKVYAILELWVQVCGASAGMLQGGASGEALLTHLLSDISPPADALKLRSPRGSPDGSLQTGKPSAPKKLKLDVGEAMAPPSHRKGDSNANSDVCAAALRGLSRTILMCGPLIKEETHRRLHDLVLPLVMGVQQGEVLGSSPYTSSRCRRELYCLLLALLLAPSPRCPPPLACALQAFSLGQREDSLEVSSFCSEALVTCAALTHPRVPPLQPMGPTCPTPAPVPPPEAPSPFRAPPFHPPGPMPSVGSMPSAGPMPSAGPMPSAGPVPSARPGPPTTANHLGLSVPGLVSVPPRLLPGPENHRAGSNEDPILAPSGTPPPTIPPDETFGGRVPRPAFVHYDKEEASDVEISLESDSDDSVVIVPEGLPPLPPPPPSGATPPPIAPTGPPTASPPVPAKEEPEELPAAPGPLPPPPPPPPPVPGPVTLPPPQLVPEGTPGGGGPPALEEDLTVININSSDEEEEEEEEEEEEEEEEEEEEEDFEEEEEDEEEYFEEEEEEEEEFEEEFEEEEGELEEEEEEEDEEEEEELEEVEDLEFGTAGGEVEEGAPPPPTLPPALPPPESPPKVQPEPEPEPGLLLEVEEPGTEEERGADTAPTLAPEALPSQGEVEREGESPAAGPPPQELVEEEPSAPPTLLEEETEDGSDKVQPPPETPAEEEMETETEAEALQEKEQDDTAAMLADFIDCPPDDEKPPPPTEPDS

Turning to GRKKRRQRRRGG [TAT, reference compound], the “disruption of PELP1 interaction with G9a/EHMT2” value in the assay with PELP1-G9a complex is reported as “no effect”. In the assay on ZRPELP1 cells, the “PELP1-mediated breast cancer cell proliferation” value is “no significant effect”.
In the case of GRKKRRQRRRGGFKEWWRIDMVWLHRVRRNSY [PIP3], in assay [1], the “growth of TNBC and ER-positive breast cancer cell lines” value was “inhibited growth; also recorded: inhibits proliferation of breast cancer cells”. Further, in assay [2], the “activity on TNBC cells” value is “has activity in triple negative cells”. Further, in assay [3], the “concentration of potent activity on glioma proliferation” value fell in the range of 5 to 10 µM. In addition, the “proliferation of glioma cell lines and primary GBM cells” value in assay [3] (varying concentration) was “significantly reduced their proliferation in a dose-dependent manner”.
As for GRKKRRQRRRGGIMGRGLCMRGVVRGRGRN [PIP2], in assay [4], the “ERE activation (ERE-luciferase)” value is listed as “significantly decreased ERE activation”. In addition, the “proliferation of therapy resistant cell lines” value in assay [5] is on record as “inhibited the proliferation; also recorded: efficiently reduce the growth of therapy resistant cells”. In the assay with PELP1-G9a complex, the “disruption of PELP1 interaction with G9a/EHMT2” value is “disrupted by the addition of either of the two peptides in a dose-dependent manner”. In the assay with ZRPELP1 cells, the “PELP1-mediated breast cancer cell proliferation” value is “significantly inhibit PELP1-mediated proliferation”.

The record behind these values is US10682388B2, “Targeting of PELP1 in cancer therapy” (THE BOARD OF REGENTS OF THE UNIVERSITY OF TEXAS SYSTEM, priority 2014, dated 2020).
